{"source": "the SangsterLogP compilation", "data": [{"assay": "method code SF-AS, from DOI: 10.1016/0014-5793(90)81139-f, PMID: 2387393", "conditions": "pH 2.0", "values": [{"smiles": "COC1=C(OC)C(=O)C(C)=C(C)C1=O", "logD": 1.26}, {"smiles": "COc1c(O)c(C)c(C)c(O)c1OC", "logD": 1.6}, {"smiles": "Cc1cc(O)c(C)c(C)c1O", "logD": 1.69}, {"smiles": "CC1=CC(=O)C=C(Br)C1=O", "logD": 1.21}, {"smiles": "COc1c(O)c(OC)c(OC)c(O)c1OC", "logD": 0.39}, {"smiles": "CC1=CC(=O)C=CC1=O", "logD": 0.67}, {"smiles": "COc1cc(O)ccc1O", "logD": 0.47}, {"smiles": "COc1cc(O)cc(OC)c1O", "logD": 0.17}, {"smiles": "COC1=CC(=O)C=C(OC)C1=O", "logD": -0.05}, {"smiles": "Cc1cc(O)cc(Br)c1O", "logD": 1.38}, {"smiles": "COc1c(O)cc(C)c(O)c1OC", "logD": 1.02}, {"smiles": "COC1=CC(=O)C=CC1=O", "logD": 0.27}]}]}
